Measurements published in ChEMBL document CHEMBL5257066, “The discovery of cyclic γ-AApeptides as the promising ligands targeting EP2” (Bioorg Med Chem Lett, 2023).
Calls of active or inactive are those of the source. The calls are words filed in the database; no cut-off is given here.

Key:
[1] = molecular target: T1, Prostaglandin E2 receptor EP2 subtype (Homo sapiens, UniProt P43116); experiment: Binding affinity to human recombinant PTGER2 assessed as dissociation constant by high throughput fluorescence polarization assay
[2] = molecular target: T1, Prostaglandin E2 receptor EP2 subtype; experiment: Binding affinity to human recombinant PTGER2 by high throughput fluorescence polarization assay

T1 sequence (P43116 whole entry): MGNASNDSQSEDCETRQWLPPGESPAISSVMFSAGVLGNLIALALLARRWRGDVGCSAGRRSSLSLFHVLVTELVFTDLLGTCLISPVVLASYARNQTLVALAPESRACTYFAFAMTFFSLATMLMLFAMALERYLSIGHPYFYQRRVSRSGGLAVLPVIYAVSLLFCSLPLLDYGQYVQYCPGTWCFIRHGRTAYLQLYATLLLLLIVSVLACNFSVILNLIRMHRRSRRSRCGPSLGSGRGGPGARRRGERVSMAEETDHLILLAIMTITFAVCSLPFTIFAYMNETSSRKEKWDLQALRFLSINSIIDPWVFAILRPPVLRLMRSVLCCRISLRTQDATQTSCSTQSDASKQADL

Row | Kd [1] [nM] | Activity [2] | Structure (SMILES)
1 | 16 | – | CC(C)C[C@H]1CN(CC(=O)NCCC(=O)N[C@@H](CCCCNC(=S)Nc2ccc(-c3c4ccc(=O)cc-4oc4cc(O)ccc34)c(C(=O)O)c2)C(N)=O)C(=O)CCSCc2ccc(cc2)C(=O)N[C@@H](CCCCN)CN(C(=O)CCc2ccccc2)CC(=O)N[C@@H](CC(C)C)CN(C(=O)CCC2CCCCC2)CC(=O)N[C@@H](Cc2ccccc2)CN(C(=O)Cc2ccc3ccccc3c2)CC(=O)N1
2 | – | Active | CC(C)C[C@H]1CN(CC(N)=O)C(=O)CCSCc2ccc(cc2)C(=O)N[C@@H](CC(C)C)CN(C(=O)CC2CC2)CC(=O)N[C@@H](CCCCN)CN(C(=O)CCc2ccccc2)CC(=O)N[C@@H](Cc2ccccc2)CN(C(=O)CCC2CCCCC2)CC(=O)N1
3 | – | Active | CC(C)C[C@H]1CN(CC(N)=O)C(=O)CCSCc2ccc(cc2)C(=O)N[C@@H](CCCCN)CN(C(=O)CCc2ccccc2)CC(=O)N[C@@H](CC(C)C)CN(C(=O)CCC2CCCCC2)CC(=O)N[C@@H](Cc2ccccc2)CN(C(=O)Cc2ccc3ccccc3c2)CC(=O)N1
